Assay results taken from patent publication US8580321B2, “Method for reducing the effects of chemotherapy using flagellin related polypeptides” (priority 2003, dated 2013).
Like-named read-outs stand apart in the source and are kept apart here.

What was measured:
[1] = test system: NF-κB; assay: NF-κB-regulated luciferase reporter assay in H116 human colon cancer cells; type: cell-based
From the text: While translocation of NF-κB to the nucleus is a crucial step in induction of NF-κB-regulated inhibitors of apoptosis, it is not sufficient in itself. To directly test the ability of selected fragments to induce expression of NF-κB-regulated genes, we performed reporter assay experiments. Flagellin and the AA′, BB′, A′ and B′ fragments were used for treatment of H116 human colon cancer cells carrying luciferase gene under a NF-κB-responsive promoter. The reporter construct contained three NF-κB-binding sites from the E-selectin promoter combined with a Hsp70 minimal promoter that is routinely used for the detection of NF-κB status of cells. Luciferase activity was measured in cell lysates six hours after addition of flagellin or its truncated fragments into the medium. TNF was used as positive control.
In order to study the ability of the AA′ fragments to directly activate NF-κB-regulated transcription, we performed reporter assay experiments as described above for a wide range of concentrations of flagellin, original AA′ and AA′-derived fragments.

[2] = test system: NF-κB; assay: EMSA of NF-κB binding activity in HT29 human colon cancer cells; type: cell-based; details: fragments 1 mg/ml, 15 min
Protocol: We further minimized the AA′ flagellin fragment by producing additional fragments through stepwise removal of peptide fragments from its N-terminal half (Table 2). […] NF-κB binding activity in HT29 cells was stimulated with TNFa (10 ng/ml), or flagellin fragments (1 mg/ml) for 15 min.

[3] = test system: NF-κB; assay: EMSA of NF-κB translocation / DNA binding in A549 cells; details: A549 cells, 1 μg/ml, 45 min, EMSA of whole cell extracts
[4] = test system: lethally irradiated mice; details: cited from earlier work
[5] = test system: NIH Swiss mice treated with cisplatinum; details: 10 mg/kg, after two weeks, n=11
[6] = test system: NIH Swiss mice treated with cisplatinum; details: i.p.; cited from earlier work
[7] = in vivo; cited from earlier work
[8] = test system: C57B1/6J mice treated with gamma radiation; assay: Radioprotection of mice by p53 inhibitor PFTα; type: in vivo, mouse; details: I.P. 10 mg/kg
[9] = test system: C57B1/6J mice treated with gamma radiation; details: Komarov et al 1999; cited from earlier work

Question: For “AA′n1-170: (1-170)-Linker-(402-505), SEQ ID NO: 30”, which “level of NF-κB-regulated transcription relative to flagellin” value ([1]; reporter assay, over the studied range of concentrations) is on record?
Answer: comparable to such of flagellin

Question: And the “NF-κB reporter activity relative to flagellin” value ([1]; very low concentration range)?
Answer: more active than flagellin

Question: What about the “induction of NF-κB translocation” value [2] of the same molecule?
Answer: induce NF-κB translocation

Question: And the “level of NF-κB translocation relative to flagellin” value [2]?
Answer: comparable to that of flagellin

Question: And the “NF-κB Stimulation” value [3]?
Answer: Yes

Question: Which DMF ([4]; lethally irradiated mice) does the source give for “SCF: stem cell factor (SCF, c-kit ligand), hematopoietic cytokine and radioprotectant” here?
Answer: 1.3-1.35

Question: For `C[C@]12CC[C@H]3[C@@H](CC=C4C[C@@H](O)CC[C@@]43C)[C@@H]1CC[C@@H]2O` [5-AED, 5-androstenediol, reference compound], which DMF ([4]; subcutaneous injection in mice 24 h before irradiation) is on record?
Answer: 1.26

Question: For `N.N.[Cl][Pt][Cl]` [cisplatinum], which “mean loss in body weight, cisplatinum alone” value [5] is on record?
Answer: ~30%

Question: And the “maximum tolerable dose [MTD]” value [6]?
Answer: 10 mg/kg

Question: What about the beta deterioration [7] of the same molecule?
Answer: 60 min

Question: Which results are given for `Cc1ccc(C(=O)Cn2c3c(sc2=N)CCCC3)cc1` [PFTα, pifithrin-alpha]?
Answer: protection from single 9 Gy and fractioned cumulative 12.5 Gy (5×2.5 Gy) [8]: protects; survival after single 12.5 and 25 Gy doses of IR [8]: no effect on survival; lethality of wild type animals receiving 6-11 Gy [9]: could be reduced

B1: Flt-3 ligand: cytokine conferring radioprotection (protein, UniProt P49771 27-235, looked up)
Fms-related tyrosine kinase 3 …: TQDCSFQHSPISSDFAVKIRELSDYLLQDYPVTVASNLQDEELCGGLWRLVLAQRWMERLKTVAGSKMQGLLERVNTEIHFVTKCAFQPPPSCLRFVQTNISRLLQETSEQLVALKPWITRQNFSRCLELQCQPDSSTLPPPWSPRPLEATAPTAPQPPLLLLLLLPVGLLLLAAAWCLHWQRTRRRTPRPGEQVPPVPSPQDLLLVEH
Question: With B1 as the molecule, how does the DMF ([4]; lethally irradiated mice) read?
Answer: > 1.2

Question: And the “30-day survival at LD100/30” value ([4]; mice)?
Answer: 70-80%
